{"source": "patent US6462086B1", "about": "“Non-malignant disease treatment with Ras antagonists” (Ramot University Authority for Applied Research and …, priority 1999, dated 2002)", "key": {"[1]": {"system": "spleen lymphocytes of MRL/lpr and MRL/++ mice", "assay": "MRL/lpr and MRL/++ mouse spleen lymphocyte proliferation ex vivo", "format": "in vivo", "conditions": "for response to ConA (stimulation index): 5 mg/Kg FTS for 3 months", "experimental": "Mice were killed by cervical dislocation and spleens removed with sterile precautions and placed in disposable plastic Petri dishes containing Dulbecco's phosphate-buffered saline (DPBS). Single cell suspensions were obtained by expressing DPBS through the spleen using a syringe and 19 gauge needle. The cells were suspended in DPBS and centrifuged at 1100 rpm for 7 minutes. Erythrocytes were lysed by a 7-minute incubation in 0.83% (weight/volume) ammonium chloride, and cells were immediately washed three times with DPBS. Spleen cells were suspended to a concentration of 3×10^6 cells/ml in RPMI-1640 medium containing 5% fetal calf serum (FCS), 100 units/ml penicillin, 100 μg/ml streptomycin, 2 mM L-glutamine, 0.1 mM non-essential amino acids, 1 mM sodium pyruvate, and 50 μM 2-mercaptoethanol. Cells were cultured at a concentration of 6×10^5 cells/200 μl culture medium/well in 96-well, flat-bottomed, microculture plates, and were incubated for 72 hours in a humidified atmosphere of 95% air and 5% CO2 at 37° C. At the end of this time, 1 μCi tritiated thymidine (3H-TdR) was added to each well in a 10 μl volume and the cultures were further incubated for 18 hours. Cells from each microculture were harvested on fibroglass filters with multiharvester and counted in liquid scintillation β counter.\nMitogens and antigens were diluted to appropriate concentrations in the incubation medium and added to the wells at the beginning of incubation period to give a final concentration of 1.0 μg/ml lipopolysaccharide (LPS), 1.0 μg/ml Concanavalin A (ConA) or 10 μg/ml beta2-Glycoprotein I (beta2-GPI). Spontaneous proliferation (without mitogen or antigen) was also assessed.\nTo determine the effect of FTS on the MRL/lpr and MRL/++ mouse splenocyte proliferation ex vivo, spleen cells suspensions were prepared from three individual spleens per group, and were separately analyzed in culture (in triplicate). Splenocyte proliferation was evaluated in the presence of LPS, ConA or β2-GPI.\nThe results are expressed as the mean value of stimulation index per group. The stimulation index was calculated as follows: the mean dpm of cells cultured in the presence of mitogen/antigen divided by the mean dpm of cells cultured in the absence of mitogen/antigen.\nThe effect of FTS on lymphocyte proliferation in vivo in MRL/lpr and control MRL/++ mice was determined by ex-vivo experiments. The mice received 5 mg/Kg FTS (5 days a week) for 3 months and spleen lymphocyte proliferation assays were then performed in vitro with no added FTS. Baseline 3H-TdR incorporation was similar in all four groups examined except for a trend towards higher values in the MRL/++ mice treated with FTS. […] As described previously (18, 19), the response of the MRL/lpr mice to ConA was markedly lower than in the MRL/++ control mice. […] An antigen-specific proliferative response to β2-GPI was measured and a significant 50% reduction in the response of lymphocytes of FTS-treated mice was measured in both MRL/lpr and MRL/++ mice."}, "[2]": {"system": "acute experimental autoimmune encephalomyelitis (EAE) in SJL/J mice", "assay": "Acute EAE in SJL/J mice, clinical signs", "format": "in vivo, mouse", "conditions": "compared to controls", "experimental": "Induction of acute EAE was based on a modification of Bernard's protocol (13). Briefly, equal volumes of MSCH (10 mg/ml in PBS) and complete Freud's adjuvant (CFA) enriched with Mycobacterium tuberculosis H37Ra (6 mg/ml) (Difco Laboratories, Detroit, Mich.) were homogenized in a blender. For each mouse, 0.1 ml (0.5 mg) of the emulsion were injected s.c. into the four footpads. Immediately thereafter and 2 days later, mice were injected i.v. with Bordetella pertussis (2.7×10^9 organisms per mouse) (Rafa Laboratories, Jerusalem, Israel). Animals were examined daily for signs of disease. The first clinical signs appeared on day 10-12 post immunization and were scored according to the following six point scale: 0: no abnormality; 1: mild tail weakness (floppy tail); 2: tail paralysis; 3: tail paralysis and hind leg paresis; 4: hind leg paralysis or mild forelimb weakness; 5: quadriplegia or moribund state; 6: death.\nFTS (as powder) was diluted in chloroform (35.8 mg/ml of FTS=0.1 M) and kept in aliquods. The content (25 μl) of one aliquod was evaporated under nitrogen and then disolved in 6 μl absolute ethanol and 7 μl of 1N NaOH; 890 μl of PBS were subsequently added. Each mouse received 0.1 ml of this solution daily (0.1 mg/mouse or 5 mg/kg) intraperitoneally (i.p.)."}, "[3]": {"system": "TAA-induced liver cirrhosis in Wistar rats", "assay": "Thioacetamide (TAA)-induced liver cirrhosis in rats, liver histopathology", "format": "in vivo, rat", "experimental": "Liver cirrhosis was induced in rats by intraperitoneal (i.p.) administration of TAA 200 mg/kg twice weekly for 12 weeks, as previously described (1, 2).\nThe FTS was dissolved in PBS and administered i.p. 3 times a week to rats according to their assigned groups. Four groups containing 6 rats each were treated as follows. One group received TAA 200 mg/kg i.p. twice a week and i.p. injections of PBS 3 days a week for 12 weeks (cirrhotic controls for the FTS-treated groups). A second group received TAA for 12 weeks and FTS 5 mg/kg, 3 times a week. […] The two control groups consisted of one that received PBS injections without TAA for 12 weeks (normal controls) and a group of 5 rats that received only FTS 5 mg/kg i.p. for 12 weeks to monitor the appearance of adverse effects.\nThe rats were sacrificed at the completion of the treatment protocols. Their livers were removed and midsections of the left lobes of the livers were processed for light microscopy. This processing consisted of fixing the specimens in a 5% neutral formol solution, embedding the specimens in paraffin, making sections of 5 μm thickness, and staining the sections with hematoxylin and eosin. Reticulin stain was performed to enhance the visualization of the extent and distribution of liver fibrosis. The tissue slices were scanned and scored by two expert pathologists who were not aware of the sample source. The degree of inflammation and fibrosis was expressed as the mean of 10 different fields in each slide that had been classified on a scale of 0-3 according to Muller, et al(3)."}, "MRL/lpr mice": {"system": "MRL/lpr mice", "assay": "Lymphadenopathy and splenomegaly in MRL mice", "format": "in vivo, mouse", "experimental": "The development of generalized lymphadenopathy in the MRL/lpr mice (saline and FTS-treated) was evaluated by palpation of axillary and inguinal lymph nodes. The maximal lymph nodes score in each mouse was 4, when both axillary and inguinal lymph nodes (in both sides) were palpable. At 18 weeks of age the mice were sacrificed and the spleens and lymph nodes (axillary, inguinal and cervical) were removed and weighed."}, "[4]": {"conditions": "FTS 5 mg/kg alone, 12 weeks, no TAA"}, "[5]": {"conditions": "TAA + FTS 5 mg/kg 3 times/week for 12 weeks"}}, "note": "“Also recorded” adds a separate entry of the source."}
{"smiles": "CC(C)=CCC/C(C)=C/CC/C(C)=C/CSc1ccccc1C(=O)O", "note": "[FTS, farnesyl thiosalicylic acid]", "values": [{"measurement": "reduction of the response to LPS (stimulation index)", "setting": "[1]; 5 mg/Kg FTS 5 days a week for 3 months", "result": "two-fold reduction"}, {"measurement": "decrease in splenocyte proliferation to ConA, LPS and β2-GPI", "setting": "[1]; FTS 5 mg/Kg/day", "result": 50, "unit": "%"}, {"measurement": "response to ConA (stimulation index)", "setting": "[1]; MRL/++ mice", "result": "not in lymphocytes of the FTS-treated MRL/++"}, {"measurement": "response to ConA (stimulation index)", "setting": "[1]; MRL/lpr mice", "result": "further reduced"}, {"measurement": "reduction in the proliferative response to β2-GPI", "setting": "[1]; both MRL/lpr and MRL/++ mice", "result": 50, "unit": "%"}, {"measurement": "clinical course of EAE (FIG. 1)", "setting": "[2]", "result": "significantly ameliorated"}, {"measurement": "Fibrotic septa (0-3)", "setting": "[3]; [4]", "result": 0}, {"measurement": "Nodule formation (0-3)", "setting": "[3]; [4]", "result": 0}, {"measurement": "Fibrotic septa (0-3)", "setting": "[3]; [5]", "result": "0.9±0.5"}, {"measurement": "Nodule formation (0-3)", "setting": "[3]; [5]", "result": "0.7 ± 0.6"}, {"measurement": "spleen weight", "setting": "MRL/lpr mice; MRL/++ mice, untreated 0.13±0.01", "result": "0.19 ± 0.03", "unit": "g"}, {"measurement": "lymphadenopathy (palpation score)", "setting": "MRL/lpr mice; MRL/lpr mice", "result": "significantly delayed; also recorded: significantly less"}, {"measurement": "weight of excised lymph nodes", "setting": "MRL/lpr mice; MRL/lpr mice", "result": "significant effect of FTS; also recorded: significantly less"}, {"measurement": "spleen weight", "setting": "MRL/lpr mice; MRL/lpr mice, 17 weeks, mean±SE, untreated 0.54±0.04", "result": "0.41 ± 0.04", "unit": "g"}]}
